Assay results from patent US20230270877A1, “Combination Therapy” (Seagen Inc., priority 2020, published 2023).
Square brackets hold non-standard residues; d marks the D form. Peptide text beside a SMILES is read from it. * marks the point of attachment. Dolaproine = CO[C@@H]([C@@H]1CCCN1)[C@@H](C)C(=O)O; Dil = CC[C@H](C)[C@H](NC)[C@@H](CC(=O)O)OC; X1 = C[C@@H](N*)[C@@H](O)c1ccccc1; NMeV = CN[C@H](C(=O)O)C(C)C

Experiments:
[1] = test system: A20 lymphoma cells; test: Immunization with killed CD30-expressing A20 cells and A20 challenge (Example 24); type: in vivo; settings: mice immunized 2 times with cells killed by the agent; compared to flash freezing; FIG. 24
Description: A20 cells expressing human CD30 were treated with CD30-Auristatin ADC (BV; SGN-35) or MMAE for 18 hrs. Alternatively, one aliquot of cells was f1ash frozen. Ficoll centrifugation of treated samples was performed to remove live cells. All samples were analyzed for apoptosis and viability by flow cytometry using annexin V/7AAD. Dying and dead cells were washed, resuspended in PBS, and intraperitoneally injected into mice. The mice were immunized 2 times, 7 days apart. Immunized mice rested for 7 additional days, and then were challenged with A20 lymphoma cells, and tumor growth or rejection was monitored over time.

[2] = molecular target: CD40 (Homo sapiens, UniProt P25942); settings: cited from earlier work
[3] = test system: acute myeloid leukemia (AML); settings: administered alone; cited from earlier work
[4] = test system: CD30+CD8 T cells; test: Proliferation of activated CD30+CD8 T cells treated with CD30 directed vc-MMAE; type: cell-based, human; settings: anti-CD3-CD28 beads + 10 ng/mL IL-2, 4 days; vs isotype control; FIG. 2
Description: Human primary CD8 T cells were labeled with CSFE and induced to undergo proliferation with anti-CD3-CD28 beads (1 bead per 4 T cells)+10 ng/mL IL-2 for 4 days. […] CD30+CD8 T cells were treated with either CD30 directed vc-MMAE (brentuximab vedotin; BV; SGN-35) or an isotype control. Cells were stained with LIVE/DEAD Fixable Dead Cell Stain (ThermoFisher) and live cells were counted via flow cytometry.

[5] = test system: Farage cells; type: in vivo; settings: single agent, SEA-CD70 3 mg/kg or SGN-35 1 mg/kg

Sequence of CD40 (P25942 21-277): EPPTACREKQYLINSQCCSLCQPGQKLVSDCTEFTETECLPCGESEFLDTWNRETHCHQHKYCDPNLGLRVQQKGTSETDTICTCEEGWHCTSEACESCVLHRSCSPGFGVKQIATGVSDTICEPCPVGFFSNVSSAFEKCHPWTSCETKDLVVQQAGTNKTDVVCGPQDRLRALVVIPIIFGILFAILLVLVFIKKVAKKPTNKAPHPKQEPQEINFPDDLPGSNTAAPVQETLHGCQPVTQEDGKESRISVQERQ

## CC[C@H](C)[C@@H]([C@@H](CC(=O)N1CCC[C@H]1[C@H](OC)[C@@H](C)C(=O)N[C@H](C)[C@@H](O)c1ccccc1)OC)N(C)C(=O)[C@@H](NC(=O)[C@@H](NC)C(C)C)C(C)C [MMAE, N-methylvaline-valine-dolaisoleuine-dolaproine-norephedrine] (H-[NMeV]V[Dil][Dolaproine]-X1)
[1]
  immune responses rejecting implanted A20 cells: stronger immune responses

## CP-870,893: a humanized IgG2 agonist antibody to CD40
[2]; combined with paclitaxel or carboplatin or gemcitabine
  activity in solid tumor indications: encouraging activity

## CT-011: anti-PD-1 antibody, a humanized antibody
[3]
  response in treating acute myeloid leukemia (AML) at relapse: failed to show response

## Dacetuzumab: fucosylated humanized S2C6, agonistic CD40 monoclonal antibody
[2]; phase 1 study in NHL and phase 2 study in DLBCL
  clinical activity: some clinical activity

## SGN-35: CD30-targeting ADC containing MMAE conjugated to the monoclonal antibody cAC10 [reference compound]
[4]
  cell proliferation of primary human CD30+CD8 T cells: not significantly altered
[5]; day post implant, untreated 28.5
  day at which tumors reached an average 5 fold increase of original size: 46 days
[5]; untreated 9.5
  days post treatment at which tumors reached an average 5 fold increase: 27 days post treatment
[1]
  immune responses rejecting implanted A20 cells: stronger immune responses
